# According to US11603359B2, “Benzothiadiazepine compounds and their use as bile acid modulators” (Albireo AB, priority 2019, dated 2023):
# pIC50: −log10 of the molar value.
# Legend:
# human IBAT = biological target: T1, human IBAT (Homo sapiens, UniProt Q12908); assay: IBAT (h/m) assay, human IBAT-overexpressing cells, 3H-taurocholic acid uptake; format: cell-based; settings: 0.25 μM 3H-taurocholic acid + 5 μM cold taurocholic acid, 20 minutes, read-out: hIBAT IC50
# T1 construct: expressed in transfected cells; Puromycin-selected IBAT-overexpressing cells
# T1 sequence (Q12908 1-348): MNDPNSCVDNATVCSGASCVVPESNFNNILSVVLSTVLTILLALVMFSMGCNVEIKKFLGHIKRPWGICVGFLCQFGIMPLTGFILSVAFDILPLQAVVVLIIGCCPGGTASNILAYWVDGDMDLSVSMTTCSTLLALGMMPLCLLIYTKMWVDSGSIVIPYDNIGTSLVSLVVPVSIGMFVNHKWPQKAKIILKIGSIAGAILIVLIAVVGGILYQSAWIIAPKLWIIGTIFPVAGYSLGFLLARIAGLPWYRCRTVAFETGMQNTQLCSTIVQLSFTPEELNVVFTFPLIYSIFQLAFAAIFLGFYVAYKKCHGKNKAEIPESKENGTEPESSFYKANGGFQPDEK
# Procedure: 10,000 cells (Human or Mouse IBAT-overexpressing cells) were seeded in 96-wells plate (Corning CLS3809) in 200 μL MEM-alpha medium (Gibco 12571-063) supplemented with 10% FBS (Gibco 10438026) containing Puromycin (Gibco A1113803) (10 μg/mL) and incubated at 37° C. in 5% CO2 for 48 hours. After incubation, media was decanted from the wells and cells were washed two times with 300 μL of basal MEM-alpha medium (FBS-free). After decanting basal MEM-alpha medium each time, plates were tapped against paper towel to ensure maximum removal of residual media. Test inhibitor dilutions (highest test concentration being 10 μM, 3-fold serial dilution, 10 points) prepared in DMSO (Sigma D2650) were added in incubation mix (maintaining 0.2% final DMSO concentration) containing 0.25 μM 3H-taurocholic acid (ARC ART-1368) and 5 μM of cold taurocholic acid (Sigma T4009). 50 μL of incubation mix containing test inhibitors was then added to the wells (in duplicate) and the plates were incubated for 20 minutes in a CO2 incubator at 37° C. After incubation, the reaction was stopped by keeping the plates on ice water mix for 2-3 minutes and then the incubation mix was aspirated completely from the wells. The wells were washed two times with 250 μL of chilled unlabelled 1 mM taurocholic acid dissolved in HEPES (Gibco 15630080)-buffered (10 mM) HBSS (Gibco 14175079) (pH 7.4). The plates were tapped against a paper towel after every wash to ensure maximum removal of blocking buffer.
# 100 μL of MicroScint-20 (PerkinElmer 6013621) was added to the wells and kept overnight at room temperature before reading the plates in TopCount NXT™ Microplate Scintillation and Luminescence Counter from PerkinElmer under 3H Test protocol (set at 120 seconds reading time per well).
# All test compounds were provided in powder form at room temperature. 10 mM DMSO stocks of the test compounds were prepared, aliquoted and stored at −20° C. From the 10 mM DMSO stock of the compounds, a 3-fold serial dilution in DMSO was prepared to get a total of 10 dilutions of the test compounds. 0.5 μL of this dilution in DMSO was added to 250 μL of FBS-free basal media containing 3H-taurocholic acid and cold taurocholic acid to prepare the incubation mixture.
# [1] = Bidirectional permeability assay (Caco-2 cells); format: in vitro ADME; settings: human, pH 7.4, Caco-2 monolayers, absorptive direction (A2B), FaSSIF donor buffer
# Procedure: Caco-2 cells (Evotec) were seeded at a density of 70,000 cells/well in Millicell® 24-well cell culture insert plates and maintained in an incubator (37° C., 5% CO2, 95% RH) for 21 days with media change on alternate days.
# Stock solutions (10 mM) of the test compounds, atenolol (low permeability marker), propranolol (high permeability marker) and digoxin (substrate for P-gp transport pathway) were prepared in dimethylsulfoxide (DMSO). An intermediate stock solution (1 mM) was prepared by diluting 10 μL of 10 mM master stock solution with 90 μL of neat DMSO. A working stock solution (10 μM) was prepared by diluting 50 μL of 1 mM with 4950 μL of FaSSIF buffer. Post addition of compounds to the FaSSIF, samples were subjected to sonication for 2 hours, and centrifuged at 4000 RPM for 30 minutes at 37° C. The 4 mL of resultant supernatant was directly used in the assay. The final DMSO concentration in the transport experiments was 1%.
# On the day of assay, Caco-2 monolayers were washed twice with transport buffer (HBSS, pH 7.4) and pre-incubated for 30 min (37° C., 5% CO2, 95% RH) in an incubator. The electrical resistance of the monolayers was measured with a Millicell®—ERS system. Monolayers with trans-epithelial electrical resistance (TEER) values greater than 350 ohm·cm^2 were selected for the assay.
# The assay was conducted in absorptive direction (A2B) and secretory (B2A) directions. Transport experiments were initiated by addition of transport assay buffer (FaSSIF buffer prepared in HBSS) consisting of compounds to the donor compartment (apical chamber A-B; basolateral chamber B-A) in duplicate (n=2) wells. Drug free HBSS buffer (pH 7.4) containing 1% bovine serum albumin (BSA) was introduced to the receiver (A-B-basolateral; B-A-Apical) compartments. The volumes of apical and basolateral compartments were 0.4 and 0.8 mL, respectively. After adding dosing solution, plates were incubated in an incubator for 120 minutes at 37° C. After 120 minutes, donor and receiver samples were collected and matrix matched (1:1, 30 μL study sample+30 μL blank buffer) with the opposite buffer. Dosing samples matrix matched (1:1, 30 μL study sample+30 μL blank buffer) with the opposite buffer. Samples were processed by adding acetonitrile containing internal standard (60 μL study sample+200 μL acetonitrile containing internal standard—Tolbutamide, 500 ng/mL). Samples were vortexed and centrifuged at 4000 rpm for 10 minutes. The obtained supernatant (100 μL) was diluted with 100 μL of water and transferred to fresh 96 well plates. The concentration of compounds in the samples was analyzed by liquid chromatography tandem mass spectrometry (LC-MS/MS) method using discovery grade bio-analytical method, as applicable.
# The mean apparent permeability (Papp, ×10^−6 cm/sec) of the test compounds, atenolol, propranolol and digoxin were calculated as follows:
# [formula] where dq/dt=rate of transport (rate of transport of compound in the receiver compartment), C0=initial concentration in the donor compartment, A=surface area of the effective filter membrane.
Compound,pIC50 (human IBAT),"Papp A→B at 120 min, 10 µM [1] [×10⁻⁶ cm/s]"
"CCCCC1(CCCC)CN(c2ccccc2)c2cc(SC)c(OCC(O)C(=O)O)cc2S(=O)(=O)N1 (racemic) [Example 5, 3-((3,3-dibutyl-7-(methylthio)-1,1-dioxido-5-phenyl-2,3,4,5-tetrahydro-1,2,5-benzothiadiazepin-8-yl)oxy)-2-hydroxypropanoic acid]",8.30,1
"CCCCC1(CC)CN(c2ccccc2)c2cc(N(C)C)c(OCCC(=O)O)cc2S(=O)(=O)N1 (racemic) [Example 11, 3-((3-Butyl-7-(dimethylamino)-3-ethyl-1,1-dioxido-5-phenyl-2,3,4,5-tetrahydro-1,2,5-benzothiadiazepin-8-yl)oxy)propanoic acid]",8.52,13.1
"CCCCC1(CC)CN(c2ccccc2)c2cc(SC)c(OCCC(=O)O)cc2S(=O)(=O)N1 (single isomer, unassigned) [Example 4, 3-((3-butyl-3-ethyl-7-(methylthio)-1,1-dioxido-5-phenyl-2,3,4,5-tetrahydro-1,2,5-benzothiadiazepin-8-yl)oxy)propanoic acid]",8.70,7.6
"CCCCC1(CCCC)CN(c2ccccc2)c2cc(SC)c(OCC(O)C(=O)O)cc2S(=O)(=O)N1 (single isomer, unassigned) [Example 7, 3-((3,3-dibutyl-7-(methylthio)-1,1-dioxido-5-phenyl-2,3,4,5-tetrahydro-1,2,5-benzothiadiazepin-8-yl)oxy)-2-hydroxypropanoic acid]",8.70,0.4
"CCCCC1(CC)CN(c2ccccc2)c2cc(N(C)C)c(OCCC(=O)O)cc2S(=O)(=O)N1 (single isomer, unassigned) [Example 12, 3-((3-butyl-7-(dimethylamino)-3-ethyl-1,1-dioxido-5-phenyl-2,3,4,5-tetrahydro-1,2,5-benzothiadiazepin-8-yl)oxy)propanoic acid]",8.52,14.2
"CCCCC1(CCCC)CN(c2ccccc2)c2cc(SC)c(OCCC(=O)O)cc2S(=O)(=O)N1 [Example 1, 3-((3,3-Dibutyl-7-(methylthio)-1,1-dioxido-5-phenyl-2,3,4,5-tetrahydro-1,2,5-benzothiadiazepin-8-yl)oxy)propanoic acid]",8.15,9.2
"CCCCC1(CCCC)CN(c2ccccc2)c2cc(SC)c(OC(C)CC(=O)O)cc2S(=O)(=O)N1 (stereo not drawn) [Example 8, 3-((3,3-Dibutyl-7-(methylthio)-1,1-dioxido-5-phenyl-2,3,4,5-tetrahydro-1,2,5-benzothiadiazepin-8-yl)oxy)butanoic acid]",7.92,9.5
"CCCCC1(CCCC)CN(c2ccccc2)c2cc(Cl)c(OCCC(=O)O)cc2S(=O)(=O)N1 [Example 9, 3-((3,3-dibutyl-7-chloro-1,1-dioxido-5-phenyl-2,3,4,5-tetrahydro-1,2,5-benzothiadiazepin-8-yl)oxy)propanoic acid]",7.68,10
"CCCCC1(CCCC)CN(c2ccc(O)cc2)c2cc(SC)c(OCCC(=O)O)cc2S(=O)(=O)N1 [Example 10, 3-((3,3-dibutyl-5-(4-hydroxyphenyl)-7-(methylthio)-1,1-dioxido-2,3,4,5-tetrahydro-1,2,5-benzothiadiazepin-8-yl)oxy)propanoic acid]",8.70,2.1
